Experimental data published in publication PMC8869242 (Biomedicines, 2022).
pEC50, pIC50: −log10 of the molar value. Like-named read-outs stand apart in the source and are kept apart here.

Experiments:
MDA-MB-231 cells [1] = experiment: Cell proliferation assay (label-free live cell counting), MDA-MB-231; format: cell-based, human; settings: for logIC50 ± SEM / IC50: n = 4; for IC50: read-out: IC50 in µM [95% CI]
Method: The human triple-negative breast cancer cell line MDA-MB-231 (ATCC HTB-26) (absence of estrogen and progesterone receptors, […]) and the non-cancerous breast cell line MCF-12A (ATCC CRL-10782) were purchased from ATCC (Manassas, VA, USA). MDA-MB-231 cells were cultured in DMEM-HG cell growth medium supplemented with 10% (v/v) FBS. MCF-12A cells were cultured in DMEM/F12 medium supplemented with 20 ng/mL hEGF, 100 ng/mL cholera toxin, 0.01 mg/mL bovine insulin, 500 ng/mL hydrocortisone and 5% (v/v) horse serum. Cells were cultured in monolayers in a sterile environment at 37 °C with 5% CO2 humidified atmosphere. Under these conditions, the population doubling time was 25.5 ± 0.9 h and 20.6 ± 3.1 h for MDA-MB-231 and MCF-12A cells, respectively. The cell cultures were routinely screened for mycoplasma contamination, yielding negative results.
Cells were seeded in 96-well microplates at the cell density 1.5 × 10^4 cells/cm^2 (final volume 200 µL/well) and left 24 h to attach. […] Label-free kinetic live monitoring of cell proliferation was performed using LionheartFX automated microscope (BioTek, Winooski, VT, USA) with direct image acquisition of cells in microplates at 0, 24, 48 and 72 h post-addition of the tested compounds. Acquired 4X images were processed using Gen 5 Image Analysis software (BioTek, Winooski, VT, USA) that allows for identification and counting of individual cells per image. The normalized cell growth (%) was calculated using the following formula: C(t) = [(Number of Treated Cells(t) − Number of Treated Cells(0))/(Number of Untreated Cells(t) − Number of Untreated Cells(0))] × 100, where C(t) is the percent of net cell growth over time, Number of Treated Cells(t) is the count of cells treated with drug at each time point, Number of Treated Cells(0) is the count cells treated with drug at time 0 h, Number of Untreated Cells(t) is the count of untreated (control) cells at each time point, Number of Untreated Cells(0) is the count of untreated (control) cells at time 0 h.

MCF-12A cells = experiment: Cell proliferation assay (label-free live cell counting), MCF-12A; format: cell-based, human; settings: for logIC50 ± SEM: n = 4; for IC50: n = 4, read-out: IC50 in µM [95% CI]
MDA-MB-231 cells [2] = experiment: Cell migration, wound healing (scratch) assay; format: cell-based, human; settings: from AUC0-18h of wound confluence, n = 5; for logEC50 (migration of MDA-MB-231 cells): mean ± SEM
Method: The effect of compounds on cell migration was studied using wound healing assay (or scratch assay). Triple-negative breast cancer MDA-MB-231 cells were seeded in 24-well microplate at the cell density 12.5 × 10^4 cells/cm^2 (1 mL final volume) and left 24 h to attach and create a confluent monolayer. The cell monolayer was scratched with 200 µL pipette tip, producing a vertical straight wound in the middle of the well; growth medium was removed and wells were washed twice with growth medium to remove all detached cells. […] Wound closure was analyzed as a confluence of the initial cell-free area covered by migrating cells at the indicated time points measured with Gen 5 Image Analysis software. Confluence was calculated using the following formula: C(t) = [(Object Sum Area(t) − Object Sum Area(0))/(I(A) − Object Sum Area(0))] × 100, where C(t) is the percent wound confluence over time, Object Sum Area(t) is the area covered by cells at each time point, Object Sum Area(0) is the area covered by cells at time 0 h and I(A) is the total area of the 4X image.

[3] = tested on: chicken embryo chorioallantoic membrane (CAM); experiment: In vivo CAM assay (neovascularization); settings: for CAM early steps of angiogenesis: number of nodes, junctions and segments / CAM later steps of angiogenesis: total length, total branching length and total segment length: 2 to 8 µM
Method: The chicken embryo chorioallantoic membrane (CAM) assay was used to study the effect of tested drugs on neovascularization, as described elsewhere. Briefly, fertilized chicken eggs were incubated at 37.5 °C in a humidified atmosphere with agitation. After 3 days of incubation, 2.5 mL of albumen was removed to detach developing CAM from the shell. A window in the eggshell was cut off to expose the embryo, and then, the eggshell was sealed with paraffin. Incubation of fertilized eggs continued until day 9, when the windows were unsealed and four paper disks previously sterilized and pre-treated with hydrocortisone ([…] to avoid inflammatory responses) were placed in direct contact with CAM in each egg (3 PBS-soaked disks and 1 VEGF-soaked (10 ng/mL) disk), and windows were re-sealed with paraffin. […] The remaining two disks were used as negative/vehicle (treated with PBS) and positive (treated with VEGF) controls. The eggs were further incubated two more days, and at […], the disks bound to the CAM were removed, placed in PBS and imaged using a contrast-phase microscope (Motic® AE200 inverted microscope, Spectra Services, VWR International) (with a 4X magnification) coupled to a Moticam 5 digital camera. Images were analyzed using the Angiogenesis Analyzer for Fiji.

[4] = tested on: VEGF secretion by MDA-MB-231 cells; experiment: VEGF production, Human VEGF Quantikine ELISA of cell culture medium; format: cell-based; settings: MDA-MB-231, 5–20 µM, 12 h
Method: MDA-MB-231 cells were seeded in 96-well microplates at the cell density 1.5 × 10^4 cells/cm^2 (final volume 200 µL/well) and left 24 h to attach. […] VEGF concentration in cell culture medium was determined in undiluted samples in duplicate using the Human VEGF Quantikine ELISA Kit (R&D Systems Inc., Minneapolis, MN, USA) according to the manufacturer’s protocol. In brief, 200 μL of conditioned media was added to a 96-well microplate pre-coated with monoclonal antibody for human VEGF and the plate was incubated for 2 h. After washing with wash buffer, enzyme-linked polyclonal antibody specific for human VEGF was added, followed by incubation for 2 h. The plate was washed to remove unbound antibody-enzyme reagent, substrate solution was added and incubated for 30 min and the reaction was terminated by the addition of the stop solution, producing a yellow solution. The optical density at 450 nm with wavelength correction at 540 nm was measured using a Synergy HT microplate reader (BioTek, Winooski, VT, USA). The concentration of VEGF was interpolated from the standard curve (15.6–1000 pg/mL) prepared in parallel.

[5] = Tolerability in tumor-bearing mice (body weight, behavior, relative organ weight, histopathology, deaths)
[6] = Pd2Spm 5 mg/kg/day, cisplatin 2 mg/kg/day
[7] = tumor-bearing mice, i.p. 5 days, Pd2Spm 5 mg/kg/day, cisplatin 2 mg/kg/day
[8] = organ weight/body weight × 100%, mean ± SEM, n = 7, cisplatin 2 mg/kg/day, Pd2Spm 5 mg/kg/day

| SMILES | logIC50 ± SEM (MDA-MB-231 cells [1]; MDA-MB-231, 24 h of incubation) | IC50 (MDA-MB-231 cells [1]; MDA-MB-231, 24 h of incubation) | logIC50 ± SEM (MDA-MB-231 cells [1]; MDA-MB-231, 48 h of incubation) | IC50 (MDA-MB-231 cells [1]; MDA-MB-231, 48 h of incubation) | logIC50 ± SEM (MDA-MB-231 cells [1]; MDA-MB-231, 72 h of incubation) | IC50 (MDA-MB-231 cells [1]; MDA-MB-231, 72 h of incubation) | logIC50 ± SEM (MCF-12A cells; 48 h of incubation) | IC50 (MCF-12A cells; 48 h of incubation) | logIC50 ± SEM (MCF-12A cells; 72 h of incubation) | IC50 (MCF-12A cells; 72 h of incubation) | logEC50 (migration of MDA-MB-231 cells) (MDA-MB-231 cells [2]) | pEC50 (MDA-MB-231 cells [2]) | CAM early steps of angiogenesis: number of nodes, junctions and segments [3] | CAM later steps of angiogenesis: total length, total branching length and total segment length [3] | VEGF secretion in cell culture medium [4] | liver histopathology (glycogen accumulation, PAS) [5, 6] | body weight [5, 7] | further results |
| --- | --- | --- | --- | --- | --- | --- | --- | --- | --- | --- | --- | --- | --- | --- | --- | --- | --- | --- |
| N.N.[Cl][Pt][Cl] [Cisplatin, cis-dichlorodiammine platinum(II), reference compound] | −5.459 ± 0.036 | 3.5 µM | −6.005 ± 0.027 | 1 µM | −6.043 ± 0.020 | 0.9 µM | −5.988 ± 0.029 | 1 µM | −5.981 ± 0.026 | 1 µM | −4.329 ± 0.130 | 4.33 | decrease, in a dose-dependent manner | reduced, in a dose-dependent manner | inhibited VEGF secretion in cell culture medium in a dose-dependent manner | swollen, pale and finely vacuolated cytoplasm due to intracellular accumulation of glycogen | slower body weight recovery | logIC50 ± SEM (MCF-12A cells; 24 h of incubation): −5.510 ± 0.062; IC50 (MCF-12A cells; 24 h of incubation): 3.1 µM; kidney histopathology (perirenal adipose tissue) ([5]; compared to vehicle-treated animals): decreased perirenal adipose tissue |
| NCCCNCCCCNCCCN.[Cl][Pd][Cl].[Cl][Pd][Cl] [Pd2Spm, dinuclear palladium(II)-spermine chelate] | −5.081 ± 0.024 | 8.3 µM | −5.105 ± 0.022 | 7.9 µM | −5.137 ± 0.021 | 7.3 µM | −4.039 ± 0.023 | 91.5 µM | −4.048 ± 0.068 | 89.5 µM | −4.243 ± 0.113 | 4.24 | decrease, in a dose-dependent manner | reduced, in a dose-dependent manner | inhibited VEGF secretion in cell culture medium in a dose-dependent manner | not observed | did not show changes in body weight | pIC50 (MDA-MB-231 cells [1]; MDA-MB-231, 24-72 h, read-out: IC50 values (range over incubation times)): 5.08 to 5.14; growth inhibition at the highest concentration (MCF-12A cells; 100 µM, compared to same dosage of cisplatin): did not produce a maximum growth inhibition; pIC50 (MCF-12A cells; 24-72 h, read-out: IC50 values (range over incubation times)): 3.64 to 4.05; angiogenesis in CAM at single concentration ([3]; 8 µM (4.46 µg/mL)): significantly inhibited angiogenesis; deaths during treatment ([5]; cumulative dose of 25 mg/kg (5 mg/kg/day for 5 consecutive days)): no associated deaths; Relative Organ Weight (%), Brain [5, 8]: 1.79 ± 0.16%; Relative Organ Weight (%), Heart [5, 8]: 0.53 ± 0.06%; Relative Organ Weight (%), Kidneys [5, 8]: 1.43 ± 0.10%; Relative Organ Weight (%), Liver [5, 8]: 6.14 ± 0.29%; Relative Organ Weight (%), Lungs [5, 8]: 0.77 ± 0.08%; Relative Organ Weight (%), Spleen [5, 8]: 0.32 ± 0.11%; signs of general toxicity [5, 7]: no such adverse effects were observed |
